The results in this text go back to patent publication US7932272B2, “Antifungal agent containing heterocyclic compound” (Eisai R&D Management Co., Ltd., priority 2003, dated 2011).

This assay deals with A. fumigatus Tsukuba strain. Nature of the assay: Experimental respiratory aspergillus infection model in mice. The assay is classed as in vivo, female DBA/2N mice. The note with it: 5-fluorouracil-treated mice, A. fumigatus nasal infection, 20 or 40 mg/kg peroral 3 times per day for 3 days, observed until 14 days after infection. How it is done: In order to increase susceptibility of the mice to infection, 200 mg/kg of 5-fluorouracil was administered subcutaneously 6 days prior to infection.
A. fumigatus Tsukuba strain was used.
A spore suspension of the infection strain was used to coat a potato dextrose agar medium (PDA), a standing culture was carried out for 4 to 7 days at 35° C., spore was then suspended in a sterilized physiological saline containing 0.05% Tween 80. By counting the pore count on a cytometry plate, the suspension was diluted to 6×10^5 cells/ml with sterilized physiological saline containing 0.05% Tween 80 to serve as fungal inoculum.
Under ketalar anesthesia, 50 μl of fungal inoculum was used to inoculate 8 to 9 week-old female DBA/2N mice in the nose (3×10^4 cells/mouse).
From 1 hour after fungal inoculation, 0.2 ml of agent solution (dissolved or suspended in sterilized physiological saline containing 6.5% DMSO and 3.5% Tween 80), was administered into the stomach using a peroral probe 3 times per day for 3 days. The agent dosage was from 20 or 40 mg/kg, and the number of animals in one group was 5 animals.
The protective effect was determined by observing life/death until 14 days after infection and calculating the mean survival days.

Molecules are shown by their SMILES.

As for `Nc1ccc(C(=O)NCc2ccc(Cc3ccccc3)s2)c(N)n1` [Example A-55, 2,6-Diamino-N-(5-benzyl-thiophen-2-ylmethyl)-nicotinamide], the “Mean Survival Days” value was 12.6 days.
